This note sets out measurements from patent US9802960B2 (MILLENNIUM PHARMACEUTICALS, INC., priority 2014, dated 2017).

As usually defined, the inhibition is how much of the control response was suppressed.

Where only a bound is given, the exact number is not on record here.

In the first assay the target is Human VPS34 (Homo sapiens (Human), UniProt Q8NEB9). Put plainly: Human VPS34 enzyme assay (Adapta TR-FRET). The class given is biochemical. Particulars: compound concentration 1.11 μM.
Chain of Human VPS34 (Q8NEB9 whole entry): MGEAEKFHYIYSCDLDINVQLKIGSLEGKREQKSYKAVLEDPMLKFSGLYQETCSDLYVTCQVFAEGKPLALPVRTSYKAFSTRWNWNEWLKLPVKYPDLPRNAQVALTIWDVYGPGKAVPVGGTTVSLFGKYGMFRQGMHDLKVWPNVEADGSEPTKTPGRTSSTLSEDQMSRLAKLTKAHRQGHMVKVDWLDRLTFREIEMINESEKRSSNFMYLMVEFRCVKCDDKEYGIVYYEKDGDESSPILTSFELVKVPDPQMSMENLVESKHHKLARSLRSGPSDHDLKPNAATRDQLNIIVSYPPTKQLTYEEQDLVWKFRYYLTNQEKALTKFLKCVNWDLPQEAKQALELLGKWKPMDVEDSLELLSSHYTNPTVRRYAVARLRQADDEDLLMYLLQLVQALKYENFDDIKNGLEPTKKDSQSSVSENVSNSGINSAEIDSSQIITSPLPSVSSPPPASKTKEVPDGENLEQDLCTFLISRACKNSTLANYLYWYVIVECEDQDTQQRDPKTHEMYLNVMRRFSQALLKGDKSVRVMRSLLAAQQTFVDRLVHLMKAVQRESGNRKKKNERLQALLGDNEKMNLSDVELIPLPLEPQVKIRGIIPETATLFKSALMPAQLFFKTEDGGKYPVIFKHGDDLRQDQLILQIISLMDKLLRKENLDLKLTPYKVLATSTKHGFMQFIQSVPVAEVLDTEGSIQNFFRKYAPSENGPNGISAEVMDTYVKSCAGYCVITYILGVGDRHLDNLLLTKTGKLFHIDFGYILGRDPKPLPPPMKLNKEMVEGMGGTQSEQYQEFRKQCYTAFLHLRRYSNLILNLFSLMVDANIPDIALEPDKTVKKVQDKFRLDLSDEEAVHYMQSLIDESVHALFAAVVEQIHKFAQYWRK
Regarding `CC(=O)Nc1cc(-c2cnc(Cl)c(NS(=O)(=O)c3cn(C)nc3C(F)(F)F)c2C)ccn1` [Compound I-493, N-[6-chloro-4-methyl-5-({[1-methyl-3-(trifluoromethyl)-1H-pyrazol-4-yl]sulfonyl}amino)-3,4′-bipyridin-2′-yl]acetamide], the “Percent Inhibition” value stood at 99%.

The same assay, now with this note: compound concentration 1.11 μM; read-out: Percent Inhibition.
For `Cc1c(-c2ccnc(NC(=O)C3CC3)c2)cnc(Cl)c1NS(=O)(=O)c1ccc(F)cc1F` [Compound I-308, N-(6-chloro-5-{[(2,4-difluorophenyl)sulfonyl]amino}-4-methyl-3,4′-bipyridin-2′-yl)cyclopropane carboxamide], the inhibition at 1.11 µM was greater than 99%.
The same measure, in the same setting: then `CC(=O)Nc1cc(-c2cc(NS(=O)(=O)N(C)C)c3ccnn3c2)ccn1` [Compound I-476, N-(4-{4-[(dimethylsulfamoyl)amino]pyrazolo[1,5-a]pyridin-6-yl}pyridin-2-yl)acetamide], with 87%; and `CC(=O)Nc1cc(-c2cnc(Cl)c(NS(=O)(=O)N3CC4CCC3C4)c2C)ccn1` (stereo not drawn) [Compound I-477, N-{5-[(2-azabicyclo[2.2.1]hept-2-ylsulfonyl)amino]-6-chloro-4-methyl-3,4′-bipyridin-2′-yl}acetamide], with 93%.
On the same count and under the same terms, then `CC(=O)Nc1cc(-c2cnc(C)c(OS(=O)(=O)c3ccc(F)cc3F)c2)ccn1` [Compound I-478, 2′-acetamido-6-methyl-3,4′-bipyridin-5-yl 2,4-difluorobenzenesulfonate], with 84%; and `CCOc1cc(-c2ccnc(Nc3ccnc(C)n3)c2)cnc1C` [Compound I-479, 5-ethoxy-6-methyl-N-(2-methylpyrimidin-4-yl)-3,4′-bipyridin-2′-amine], with 98%.
Same read-out and setting: the value for `Cc1nccc(Nc2cc(-c3cc(N)c4ccnn4c3)ccn2)n1` [Compound I-480, 6-{2-[(2-methylpyrimidin-4-yl)amino]pyridin-4-yl}pyrazolo[1,5-a]pyridin-4-amine] was 99%.
Regarding `CC(=O)Nc1cc(-c2cncc(S(=O)(=O)N3CCN(C)CC3)c2)ccn1` [Compound I-481, N-{5-[(4-methylpiperazin-1-yl)sulfonyl]-3,4′-bipyridin-2′-yl}acetamide], the inhibition at 1.11 µM was greater than 99%.
`Cc1nccc(Nc2cc(-c3cnc(C)c(NC(=O)N4CC(F)(F)C4)c3)ccn2)n1` [Compound I-482, 3,3-difluoro-N-{6-methyl-2′-[(2-methylpyrimidin-4-yl)amino]-3,4′-bipyridin-5-yl}azetidine-1-carboxamide]: the inhibition at 1.11 µM is greater than 99%.
On the same count and under the same terms, then `CC(=O)Nc1cc(-c2cnc(C)c(NS(=O)(=O)N3CCC(C)(C)CC3)c2)ccn1` [Compound I-483, N-(5-{[(4,4-dimethylpiperidin-1-yl)sulfonyl]amino}-6-methyl-3,4′-bipyridin-2′-yl)acetamide], with greater than 99%; and `CC(=O)Nc1cc(-c2cnc3c(c2)S(=O)(=O)NCCO3)ccn1` [Compound I-484, N-(4-(1,1-dioxido-3,4-dihydro-2H-pyrido[2,3-b][1,4,5]oxathiazepin-8-yl)pyridin-2-yl)acetamide], with 92%; and `CC(=O)Nc1cc(-c2cnc(C)c(C(=O)N(C)c3ccc(F)cc3F)c2)ccn1` [Compound I-485, 2′-acetamido-N-(2,4-difluorophenyl)-N,6-dimethyl-3,4′-bipyridine-5-carboxamide], with 100%.
With `Cc1nccc(Nc2cc(-c3cc(NS(=O)(=O)c4ccc(F)cc4F)c4ccnn4c3)ccn2)n1` [Compound I-486, 2,4-difluoro-N-(6-{2-[(2-methylpyrimidin-4-yl)amino]pyridin-4-yl}pyrazolo[1,5-a]pyridin-4-yl)benzenesulfonamide], the inhibition at 1.11 µM was 84%.
On to `CC(=O)Nc1cc(-c2cnc(N(C)C)c(S(=O)(=O)NC(C)(C)C)c2C)ccn1` [Compound I-487, N-[5-(tert-butylsulfamoyl)-6-(dimethylamino)-4-methyl-3,4′-bipyridin-2′-yl]acetamide], for which the inhibition at 1.11 µM was found to be 71%.
With `CC(=O)Nc1cc(-c2cnc(Cl)c(NS(=O)(=O)N3CCCC3)c2C)ccn1` [Compound I-488, N-{6-chloro-4-methyl-5-[(pyrrolidin-1-ylsulfonyl)amino]-3,4′-bipyridin-2′-yl}acetamide], the inhibition at 1.11 µM is greater than 99%.
On the same count and under the same terms, then `CC(=O)Nc1cc(-c2cnc(N)c(N3CCCNS3(=O)=O)c2)ccn1` [Compound I-490, N-[6-amino-5-(1,1-dioxido-1,2,6-thiadiazinan-2-yl)-3,4′-bipyridin-2′-yl]acetamide], with greater than 99%.
Same read-out and setting: the value for `CC(=O)Nc1cc(-c2cnc(N(C)C)c(S(=O)(=O)Nc3ccc(F)cc3F)c2)ccn1` [Compound I-491, N-{5-[(2,4-difluorophenyl)sulfamoyl]-6-(dimethylamino)-3,4′-bipyridin-2′-yl}acetamide] was 98%.
The same measure, in the same setting: the value for `CC(=O)Nc1cc(-c2cnc(C)c(OCC3CC3)c2)ccn1` [Compound I-492, N-[5-(cyclopropylmethoxy)-6-methyl-3,4′-bipyridin-2′-yl]acetamide] was 86%.
Consider `CC(=O)Nc1cc(-c2cnc(C)c(NS(=O)(=O)N(C)c3ccccc3)c2)ccn1` [Compound I-494, N-(6-methyl-5-{[methyl(phenyl)sulfamoyl]amino}-3,4′-bipyridin-2′-yl)acetamide], for which the inhibition at 1.11 µM amounted to 91%.
Same read-out and setting: then `Cc1nccc(Nc2cc(-c3cnc(C)c(C(=O)N4CC(C)(C)C4)c3)ccn2)n1` [Compound I-495, (3,3-dimethylazetidin-1-yl){6-methyl-2′-[(2-methylpyrimidin-4-yl)amino]-3,4′-bipyridin-5-yl}methanone], with 83%.

A further assay deals with PC9 cell line. Put plainly: Cellular assay for anti-proliferative activity in combination with a second therapeutic agent (Cell Titer Glo), PC9. In kind it is cell-based, human. Particulars: in combination with AZD9291, call from Combination Index. As for the experimental part: Cells were plated in […] of media in 384 well plates at 1,000 cells per well (A431, PC9, and NCI-H1650 cell lines), 1,500 cells per well (NCI-H1975) or 2,000 cells per well ([…]). The plates were incubated for 24 hrs at 37° C., 6% CO2. The test compounds (see Table 38 below) were diluted serially, and 62.5 nL of each compound solution (or DMSO, if it is a single agent experiment) is added so the total added to the cells is 125 nL. Cell plates were incubated for 72 hrs at 37° C., 6% CO2. Cell Titer Glo reagent (Promega) was added. The plates were then incubated for 10 minutes at room temperature before luminescence was read on a plate reader such as the Pherastar Plus, Pherastar FS, or LEADSeeker imaging system.
Bliss antagonism was defined similarly.
Bliss dependence was defined as the percent cell survival at a certain dose combination divided by the percent cell survival predicted by Bliss independence. More specifically, the Bliss dependence is vAB/(vA*vB), where vAB is the viability with drug A and drug B added, while vA and vB are the viabilities with each drug alone. […]
Another way to evaluate additivity is through consideration of Loewe additivity. […] For Bliss independence, the boundary between additivity and synergy must be measured. […]
Synergy can also be measured by nonlinear blending synergy. […]
On the technique in general: Cellular ATP, detected with luciferase, serves as a proxy for viable cell number.
Turning to `Cc1c(-c2ccnc(NC(=O)C3CC3)c2)cnc(Cl)c1NS(=O)(=O)c1ccc(F)cc1F` [Compound I-308, N-(6-chloro-5-{[(2,4-difluorophenyl)sulfonyl]amino}-4-methyl-3,4′-bipyridin-2′-yl)cyclopropane carboxamide], the Meaning entry is listed as “SubAdditivity”.
